Source: ChEMBL document CHEMBL1250507, “Novel indolylmaleimide acts as GSK-3beta inhibitor in human neural progenitor cells” (Bioorg Med Chem, 2010)
Activity calls are given as the source filed them. The rule behind the calls is not given here.

How the values were obtained:
[1] = molecular target: T1, Glycogen synthase kinase-3 beta (Homo sapiens, UniProt P49841); conditions: ReNcell VM, at 3 µM
Target sequence in this assay (P49841 whole entry, looked up): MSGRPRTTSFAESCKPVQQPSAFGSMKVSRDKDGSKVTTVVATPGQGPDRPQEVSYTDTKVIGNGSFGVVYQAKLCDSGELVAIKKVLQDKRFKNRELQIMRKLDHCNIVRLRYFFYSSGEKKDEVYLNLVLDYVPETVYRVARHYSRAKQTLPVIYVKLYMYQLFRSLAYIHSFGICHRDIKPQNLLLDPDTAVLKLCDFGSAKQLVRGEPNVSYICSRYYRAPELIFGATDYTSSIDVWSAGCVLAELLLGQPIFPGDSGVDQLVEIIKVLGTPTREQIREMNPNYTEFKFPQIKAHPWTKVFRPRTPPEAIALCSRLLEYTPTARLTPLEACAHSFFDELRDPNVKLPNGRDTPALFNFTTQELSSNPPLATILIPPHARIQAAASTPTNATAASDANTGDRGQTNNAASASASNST

[2] = molecular target: T1, Glycogen synthase kinase-3 beta; conditions: ReNcell VM, 3 uM
Target sequence in this assay (P49841 whole entry, looked up): as above

ReNcell VM [3] = assay: Antiproliferative activity against human ReNcell VM cells assessed as reduction of cell proliferation at 3 uM after 72 hrs; format: functional, cell-based
[4] = molecular target: T1, Glycogen synthase kinase-3 beta; conditions: ReNcell VM, 3 uM; remark: listed apart in the source
Target sequence in this assay (P49841 whole entry, looked up): as above
Description: Inhibition of GSK3-beta in human ReNcell VM cells assessed as residual activity at 3 uM after 2 hrs by immunoprecipitation analysis relative to control

[5] = Induction of neuronal differentiation in human ReNcell VM cells assessed as beta3-tubulin positive cells after 3 days by FACS analysis relative to control; format: functional
[6] = Antiproliferative activity against human ReNcell VM cells assessed as growth doubling time at 3 uM measured every 24 hrs; format: functional
[7] = molecular target: T1, Glycogen synthase kinase-3 beta; assay: Inhibition of GSK3-beta after 30 mins by luminescence assay
Target sequence in this assay (P49841 whole entry): as the sequence (P49841 whole entry, looked up) above

[8] = molecular target: T1, Glycogen synthase kinase-3 beta; conditions: ReNcell VM, 3 uM; remark: listed apart in the source
Target sequence in this assay (P49841 whole entry, looked up): as above

ReNcell VM [9] = assay: Cytotoxicity against human ReNcell VM cells assessed as cell viability at 3 uM after 72 hrs; format: functional, cell-based
[10] = molecular target: T1, Glycogen synthase kinase-3 beta; assay: Inhibition of GSK-3-beta-mediated Wnt signaling in human ReNcell VM cells assessed as increase in accumulation of beta-catenin at 1 uM after 2 hrs by ELISA relative to control
Target sequence in this assay (P49841 whole entry, looked up): as above

Row | inhibition [1] | SMILES | also measured
1 | inactive | Cc1[nH]c2ccccc2c1C1=C(N2CCOCC2)C(=O)N(C)C1=O | 
2 | inactive | CCCCNC1=C(c2c(C)[nH]c3ccccc23)C(=O)N(C)C1=O | 
3 | inactive | CN1C(=O)C(NCCc2ccc(F)cc2)=C(c2c[nH]c3ccc(F)cc23)C1=O | 
4 | 27% | Cc1[nH]c2ccccc2c1C1=C(NCCc2ccc(F)cc2)C(=O)N(C)C1=O | inhibition [2]: Active; Activity (ReNcell VM [3]): Active; residual activity [4]: 27%; Activity [5]: 3.7%; Time [6]: 26.5 h; IC50 [7]: 0.053 µM
5 | inactive | Cc1[nH]c2ccccc2c1C1=C(N2CCCCC2)C(=O)N(C)C1=O | 
6 | inactive | Cc1[nH]c2ccccc2c1C1=C(NCCc2c[nH]c3ccccc23)C(=O)N(C)C1=O | 
7 | inactive | Cc1[nH]c2ccccc2c1C1=C(C(=O)N2CCCCC2)C(=O)N(C)C1=O | 
8 | inactive | Cc1[nH]c2ccccc2c1C1=C(NCCc2ccc(F)c(F)c2)C(=O)N(C)C1=O | 
9 | inactive | Cc1[nH]c2ccccc2c1C1=C(NCCc2ccccc2)C(=O)N(C)C1=O | 
10 | inactive | COc1ccc(CCNC2=C(c3c(C)[nH]c4ccccc34)C(=O)N(C)C2=O)cc1 | 
11 | inactive | CN1C(=O)C(NCCc2ccc(F)cc2)=C(c2c[nH]c3ccccc23)C1=O | 
12 | inactive | Cc1[nH]c2ccccc2c1C1=C(C(=O)N2CCOCC2)C(=O)N(C)C1=O | 
13 | inactive | CCCCNC(=O)C1=C(c2c(C)[nH]c3ccccc23)C(=O)N(CCCC)C1=O | 
14 | inactive | CCOC(=O)C1=C(c2c(C)[nH]c3ccccc23)C(=O)N(C)C1=O | 
15 | inactive | CCCCNC(=O)C1=C(c2c(C)[nH]c3ccccc23)C(=O)N(C)C1=O | 
16 | inactive | Cc1[nH]c2ccccc2c1C1=C(NCCc2ccc(O)cc2)C(=O)N(C)C1=O | 
17 | inactive | Cc1[nH]c2ccccc2c1C1=C(NCCc2ccc(Cl)cc2)C(=O)N(C)C1=O | 
18 | inactive | Cc1[nH]c2ccccc2c1C1=C(C(=O)N2CCN(c3ccccc3)CC2)C(=O)N(C)C1=O | 
19 | inactive | Cc1[nH]c2ccccc2c1C1=C(N2CCN(c3ccccc3)CC2)C(=O)N(C)C1=O | 
20 | inactive | COc1ccc2[nH]cc(C3=C(NCCc4ccc(F)cc4)C(=O)N(C)C3=O)c2c1 | 
21 | inactive | CCCCOC(=O)C1=C(c2c(C)[nH]c3ccccc23)C(=O)N(C)C1=O | 
22 | inactive | CCCCNC1=C(c2c(C)[nH]c3ccccc23)C(=O)N(CCCC)C1=O | 
23 | 50% | Cn1cc(C2=C(c3ccc(Cl)cc3Cl)C(=O)NC2=O)c2ccccc21 [SB-216763] | inhibition [8]: 55%; inhibition [2]: inactive; Activity (ReNcell VM [3]): Active; residual activity [4]: 22%; Activity [5]: 3.2%; Time [6]: 24.4 h; Activity (ReNcell VM [9]): Not toxic
24 |  | O=C1Cc2c([nH]c3ccc(Br)cc23)-c2ccccc2N1 | inhibition [10]: 30%
